Starred links: 1 amine or outer side, 2 acyl side, 3 side chain; linkers in the order of their positions; H or OH if unused. Non-standard residues stand in square brackets, D forms with d. Residues, ends and D or L forms follow the SMILES beside them. Groups on a side chain read outwards from the residue. *: point of attachment. Malonyl(2,2-Me2,histaminyl) = CC(C)(C(=O)NCCc1cnc[nH]1)C(=O)*; Ala(1H-tetrazol-5-yl) = N[C@@H](Cc1nnn[nH]1)C(=O)O; C18 diacid = O=C(O)CCCCCCCCCCCCCCCCC(=O)*; γGlu = O=C(O)[C@H](CCC(=O)[*:2])N[*:1]; αMeL = CC(C)C[C@](C)(N)C(=O)O; Nle = CCCC[C@H](N)C(=O)O; AEEA = NCCOCCOCC(=O)O; Alloc = C=CCOC(=O)*
Assays:
mouse GLP1 receptor = molecular target: T1, mouse GLP1 receptor (Mus musculus, UniProt O35659); assay: cAMP accumulation assay (HTRF), functional agonism of mouse GLP1 receptor in HEK cells; type: cell-based; settings: HEK cells transiently transfected, 45 min 37° C.; for Emax: HEK293, read-out: Mouse GLP-1 R agonist cAMP Emax; for EC50: read-out: Mouse GLP-1 R agonist cAMP pEC50 (converted)
T1 construct: expressed in transfected cells; host or cells: HEK cells, transient transfection with GeneJuice
T1 sequence (O35659 22-463): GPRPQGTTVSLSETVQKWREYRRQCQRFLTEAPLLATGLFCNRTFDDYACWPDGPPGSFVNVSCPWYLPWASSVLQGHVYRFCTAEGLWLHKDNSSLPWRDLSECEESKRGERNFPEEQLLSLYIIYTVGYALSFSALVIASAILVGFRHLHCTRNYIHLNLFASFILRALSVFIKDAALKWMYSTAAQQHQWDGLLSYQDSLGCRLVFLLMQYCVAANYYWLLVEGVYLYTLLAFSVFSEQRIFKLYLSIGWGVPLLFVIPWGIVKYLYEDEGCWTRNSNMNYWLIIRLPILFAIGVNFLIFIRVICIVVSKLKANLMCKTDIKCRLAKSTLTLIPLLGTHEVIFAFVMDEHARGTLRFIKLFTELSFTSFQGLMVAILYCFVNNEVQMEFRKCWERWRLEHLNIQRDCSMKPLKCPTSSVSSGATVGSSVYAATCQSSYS

mouse GLP2 receptor = molecular target: T2, mouse GLP2 receptor (Mus musculus, UniProt Q5IXF8); assay: cAMP accumulation assay (HTRF), functional agonism of mouse GLP2 receptor in HEK cells; type: cell-based; settings: HEK cells transiently transfected, 45 min 37° C.; for Emax: HEK293, read-out: Mouse GLP-2R agonist cAMP Emax; for EC50: read-out: Mouse GLP-2R agonist cAMP pEC50 (converted)
T2 construct: expressed in transfected cells; host or cells: HEK cells, transient transfection with GeneJuice
T2 sequence (Q5IXF8 1-512): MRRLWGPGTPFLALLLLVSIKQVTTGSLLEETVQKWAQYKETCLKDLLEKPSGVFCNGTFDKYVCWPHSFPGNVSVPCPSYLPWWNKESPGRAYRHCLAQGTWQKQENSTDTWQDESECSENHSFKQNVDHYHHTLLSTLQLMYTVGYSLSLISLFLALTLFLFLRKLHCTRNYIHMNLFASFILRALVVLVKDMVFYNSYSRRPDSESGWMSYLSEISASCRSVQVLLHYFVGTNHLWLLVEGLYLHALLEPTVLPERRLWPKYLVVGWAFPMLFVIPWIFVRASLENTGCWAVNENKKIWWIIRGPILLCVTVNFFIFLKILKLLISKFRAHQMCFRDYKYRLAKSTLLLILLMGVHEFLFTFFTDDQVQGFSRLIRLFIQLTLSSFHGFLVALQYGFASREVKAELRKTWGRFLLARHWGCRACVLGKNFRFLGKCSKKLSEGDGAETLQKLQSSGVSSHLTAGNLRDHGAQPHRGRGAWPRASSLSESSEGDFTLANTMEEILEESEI

human GLP1 receptor = molecular target: T3, human GLP1 receptor (Homo sapiens, UniProt P43220); assay: cAMP accumulation assay (HTRF), functional agonism of human GLP1 receptor in HEK cells; type: cell-based; settings: for Emax: HEK293, read-out: Human GLP-1R agonist cAMP Emax; for Emax / EC50: HEK cells, human GLP1 receptor BacMam, 45 min 37° C.; for EC50: read-out: Human GLP-1R agonist cAMP pEC50 (converted)
T3 construct: expressed in transfected cells; host or cells: HEK cells, BacMam virus transduction
Method: The functional activity of the peptides were assessed using a HTRF cAMP assay. pEC50 values are quoted.
cAMP production upon agonist stimulation of human GLP2 or GLP1 receptor was assessed utilizing HiRange cAMP kit (Cisbio). In brief, HEK cells were infected with either human GLP2 or GLP1 receptor BacMam virus for 24 hours and frozen for later use in the assay. […] Cells were prepared in the assay buffer (HBSS (Lonza) supplemented with 0.5 mM IBMX (Tocris)). After 45 min incubation at 37° C., the reaction was stopped by addition of the HTRF detection reagents in the lysis buffer provided in the kit.

human GLP2 receptor = molecular target: T4, human GLP2 receptor (Homo sapiens, UniProt O95838); assay: cAMP accumulation assay (HTRF), functional agonism of human GLP2 receptor in HEK cells; settings: for Emax: HEK293, read-out: Human GLP-2R agonist cAMP Emax;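 for all read-outs here: HEK cells transduced via BacMam to express human GLP2 receptor, agonist-stimulated cAMP measured by HTRF after 45 min at 37 °C in HBSS with 0.5 mM IBMX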
T4 sequence (O95838 1-553): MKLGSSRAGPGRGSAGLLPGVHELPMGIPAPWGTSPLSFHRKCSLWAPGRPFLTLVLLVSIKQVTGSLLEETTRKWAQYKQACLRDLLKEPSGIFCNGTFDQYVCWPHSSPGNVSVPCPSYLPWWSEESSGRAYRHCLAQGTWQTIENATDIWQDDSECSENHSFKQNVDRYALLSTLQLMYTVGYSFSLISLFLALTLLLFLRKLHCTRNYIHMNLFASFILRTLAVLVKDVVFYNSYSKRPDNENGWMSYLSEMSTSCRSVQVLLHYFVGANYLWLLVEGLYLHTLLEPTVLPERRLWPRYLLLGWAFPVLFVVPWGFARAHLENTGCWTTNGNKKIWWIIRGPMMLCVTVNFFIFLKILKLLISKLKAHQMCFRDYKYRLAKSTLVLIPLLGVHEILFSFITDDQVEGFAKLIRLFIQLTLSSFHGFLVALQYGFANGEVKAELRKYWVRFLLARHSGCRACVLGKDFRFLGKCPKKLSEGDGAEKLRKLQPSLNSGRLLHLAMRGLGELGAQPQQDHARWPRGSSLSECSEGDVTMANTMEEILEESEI

T3 sequence (P43220 24-463): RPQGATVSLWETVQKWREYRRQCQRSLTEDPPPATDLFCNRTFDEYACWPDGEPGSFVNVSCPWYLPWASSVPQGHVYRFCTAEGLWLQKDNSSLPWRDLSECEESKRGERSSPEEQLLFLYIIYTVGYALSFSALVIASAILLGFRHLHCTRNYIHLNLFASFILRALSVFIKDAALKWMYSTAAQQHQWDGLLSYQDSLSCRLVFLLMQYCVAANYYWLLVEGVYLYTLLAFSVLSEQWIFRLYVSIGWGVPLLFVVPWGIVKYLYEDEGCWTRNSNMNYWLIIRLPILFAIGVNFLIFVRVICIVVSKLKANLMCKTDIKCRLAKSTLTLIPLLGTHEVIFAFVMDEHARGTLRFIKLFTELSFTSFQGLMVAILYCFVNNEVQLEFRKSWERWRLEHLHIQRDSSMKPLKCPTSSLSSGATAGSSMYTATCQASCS

C=CCOC(=O)NCCCC[C@H](NC(=O)[C@H](CC(C)C)NC(=O)[C@H](CC(=O)O)NC(=O)[C@H](CC(C)C)NC(=O)[C@@H](NC(=O)[C@@H](NC(=O)[C@@H](Cc1ccccc1)NC(=O)[C@H](CCCC)NC(=O)[C@H](CCC(=O)O)NC(=O)[C@H](CC(=O)O)NC(=O)[C@H](CO)NC(=O)[C@H](Cc1ccccc1)NC(=O)[C@H](CO)NC(=O)CNC(=O)[C@H](Cc1nn[nH]n1)NC(=O)C(C)(C)C(=O)NCCc1c[nH]cn1)[C@@H](C)O)[C@@H](C)CC)C(=O)N[C@@H](C)C(=O)N[C@@H](C)C(=O)N[C@@H](CCCCN)C(=O)N[C@@H](CC(=O)O)C(=O)N[C@@H](Cc1ccccc1)C(=O)N[C@H](C(=O)N[C@@H](CC(N)=O)C(=O)N[C@@H](Cc1c[nH]c2ccccc12)C(=O)N[C@@H](CC(C)C)C(=O)N[C@H](C(=O)N[C@@H](CCC(N)=O)C(=O)N[C@H](C(=O)N[C@@H](CCCCN)C(=O)N[C@H](C(=O)N[C@H](C(=O)N[C@@H](Cc1ccccc1)C(N)=O)[C@@H](C)O)[C@@H](C)CC)[C@@H](C)O)[C@@H](C)CC)[C@@H](C)CC [Example 2] ({Malonyl(2,2-Me2,histaminyl)}-[Ala(1H-tetrazol-5-yl)]GSFSDE[Nle][dF]TILDLK(Alloc)AAKDFINWLIQTKITF-NH2)
Emax (mouse GLP1 receptor): 96.1% | EC50 (mouse GLP1 receptor): 25.1 nM | Emax (mouse GLP2 receptor): 106% | EC50 (mouse GLP2 receptor): 3.98 nM | Emax (human GLP1 receptor): 94.7% | EC50 (human GLP1 receptor): 7.94 nM | EC50 (human GLP2 receptor): 0.0316 nM | Emax (human GLP2 receptor): 101%

C=CCOC(=O)NCCCC[C@H](NC(=O)[C@H](CC(C)C)NC(=O)[C@H](CC(=O)O)NC(=O)[C@H](CC(C)C)NC(=O)[C@@H](NC(=O)[C@@H](NC(=O)[C@@H](Cc1ccccc1)NC(=O)[C@H](CCCC)NC(=O)[C@H](CCC(=O)O)NC(=O)[C@H](CC(=O)O)NC(=O)[C@H](CO)NC(=O)[C@H](Cc1ccccc1)NC(=O)[C@H](CO)NC(=O)[C@H](C)NC(=O)[C@H](Cc1nn[nH]n1)NC(=O)C(C)(C)C(=O)NCCc1c[nH]cn1)[C@@H](C)O)[C@@H](C)CC)C(=O)N[C@@H](C)C(=O)N[C@@H](C)C(=O)N[C@@H](CCCCN)C(=O)N[C@@H](CC(=O)O)C(=O)N[C@@H](Cc1ccccc1)C(=O)N[C@H](C(=O)N[C@@H](CC(N)=O)C(=O)N[C@@H](Cc1c[nH]c2ccccc12)C(=O)N[C@@H](CC(C)C)C(=O)N[C@H](C(=O)N[C@@H](CCC(N)=O)C(=O)N[C@H](C(=O)N[C@@H](CCCCN)C(=O)N[C@H](C(=O)N[C@H](C(=O)N[C@@H](CC(=O)O)C(N)=O)[C@@H](C)O)[C@@H](C)CC)[C@@H](C)O)[C@@H](C)CC)[C@@H](C)CC [Example 12] ({Malonyl(2,2-Me2,histaminyl)}-[Ala(1H-tetrazol-5-yl)]ASFSDE[Nle][dF]TILDLK(Alloc)AAKDFINWLIQTKITD-NH2)
Emax (mouse GLP1 receptor): 83.3% | Emax (mouse GLP2 receptor): 100% | Emax (human GLP1 receptor): 81.1% | Emax (human GLP2 receptor): 102%

C=CCOC(=O)NCCCC[C@H](NC(=O)[C@H](CC(C)C)NC(=O)[C@H](CC(=O)O)NC(=O)[C@H](CC(C)C)NC(=O)[C@@H](NC(=O)[C@@H](NC(=O)[C@@H](Cc1ccccc1)NC(=O)[C@H](CCCC)NC(=O)[C@H](CCC(=O)O)NC(=O)[C@H](CC(=O)O)NC(=O)[C@H](CO)NC(=O)[C@H](Cc1ccccc1)NC(=O)[C@H](CO)NC(=O)CNC(=O)[C@H](Cc1nn[nH]n1)NC(=O)C(C)(C)C(=O)NCCc1c[nH]cn1)[C@@H](C)O)[C@@H](C)CC)C(=O)N[C@@H](C)C(=O)N[C@@H](C)C(=O)N[C@@H](CCCCN)C(=O)N[C@@H](CC(=O)O)C(=O)N[C@@H](Cc1ccccc1)C(=O)N[C@H](C(=O)N[C@@H](CC(N)=O)C(=O)N[C@@H](Cc1c[nH]c2ccccc12)C(=O)N[C@@H](CC(C)C)C(=O)N[C@H](C(=O)N[C@@H](CCC(N)=O)C(=O)N[C@H](C(=O)N[C@@H](CCCCN)C(=O)N[C@@](C)(CC(C)C)C(=O)N[C@H](C(=O)N[C@@H](CC(=O)O)C(N)=O)[C@@H](C)O)[C@@H](C)O)[C@@H](C)CC)[C@@H](C)CC [Example 13] ({Malonyl(2,2-Me2,histaminyl)}-[Ala(1H-tetrazol-5-yl)]GSFSDE[Nle][dF]TILDLK(Alloc)AAKDFINWLIQTK[αMeL]TD-NH2)
Emax (mouse GLP1 receptor): 92.3% | EC50 (mouse GLP1 receptor): 3.16 nM | Emax (mouse GLP2 receptor): 101% | EC50 (mouse GLP2 receptor): 3.98 nM | Emax (human GLP1 receptor): 93.4% | EC50 (human GLP1 receptor): 2.51 nM | EC50 (human GLP2 receptor): 0.00794 nM | Emax (human GLP2 receptor): 100%

CCCC[C@H](NC(=O)[C@H](CCC(=O)O)NC(=O)[C@H](CC(=O)O)NC(=O)[C@H](CO)NC(=O)[C@H](Cc1ccccc1)NC(=O)[C@H](CO)NC(=O)CNC(=O)[C@H](Cc1nn[nH]n1)NC(=O)C(C)(C)C(=O)NCCc1c[nH]cn1)C(=O)N[C@H](Cc1ccccc1)C(=O)N[C@H](C(=O)N[C@H](C(=O)N[C@@H](CC(C)C)C(=O)N[C@@H](CC(=O)O)C(=O)N[C@@H](CC(C)C)C(=O)N[C@@H](CCCCNC(=O)CC[C@H](NC(=O)COCCOCCNC(=O)COCCOCCNC(=O)CCCCCCCCCCCCCCCCC(=O)O)C(=O)O)C(=O)N[C@@H](C)C(=O)N[C@@H](C)C(=O)N[C@@H](CCCCN)C(=O)N[C@@H](CC(=O)O)C(=O)N[C@@H](Cc1ccccc1)C(=O)N[C@H](C(=O)N[C@@H](CC(N)=O)C(=O)N[C@@H](Cc1c[nH]c2ccccc12)C(=O)N[C@@H](CC(C)C)C(=O)N[C@H](C(=O)N[C@@H](CCC(N)=O)C(=O)N[C@H](C(=O)N[C@@H](CCCCN)C(=O)N[C@H](C(=O)N[C@H](C(=O)N[C@@H](Cc1ccccc1)C(N)=O)[C@@H](C)O)[C@@H](C)CC)[C@@H](C)O)[C@@H](C)CC)[C@@H](C)CC)[C@@H](C)CC)[C@@H](C)O [Example 23] ({Malonyl(2,2-Me2,histaminyl)}-[Ala(1H-tetrazol-5-yl)]GSFSDE[Nle][dF]TILDLK([γGlu-AEEA-AEEA-C18 diacid])AAKDFINWLIQTKITF-NH2)
Emax (human GLP1 receptor): 89.8% | EC50 (human GLP1 receptor): 12.6 nM | EC50 (human GLP2 receptor): 0.0316 nM | Emax (human GLP2 receptor): 103%

Exendin-4 [reference compound]
Human GLP-1R agonist cAMP Emax (human GLP1 receptor): 99.7 | Human GLP-2R agonist cAMP Emax (human GLP2 receptor; HEK cells, human GLP2 receptor BacMam, 45 min 37° C.): 1.6

— patent US20230295260A1, “GLP RECEPTOR AGONISTS” (HEPTARES THERAPEUTICS LIMITED, priority 2020, published 2023)
